# Measurements published in patent US10479780B2, “Aminopyrazole derivatives” (Chugai Seiyaku Kabushiki Kaisha, priority 2015, dated 2019).
# Where two headings read alike, the source gives them in different places.
# Legend:
# Format in all cases: biochemical
# human Src enzyme = target: T1, human Src enzyme (Homo sapiens, UniProt P12931); test: Src enzyme inhibitory activity (time-resolved fluorometry, biotinylated peptide phosphorylation); conditions: read-out: SRC_IC50
# T1 construct: purchased Carna Biosciences, Inc. 08-173
# Procedure, shortened: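 Compounds were tested for blocking tyrosine phosphorylation of a biotinylated peptide substrate by recombinant human Src. Phosphorylated product was quantified by time-resolved fluorometry using europium cryptate and XL665 conjugates, and IC50 was calculated against the compound-free control.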
# human Lck enzyme = target: T2, human Lck enzyme (Homo sapiens, UniProt P06239); test: Lck enzyme inhibitory activity (time-resolved fluorometry, biotinylated peptide phosphorylation); conditions: read-out: LCK_IC50
# T2 construct: purchased Carna Biosciences, Inc. 08-170
# Procedure, shortened: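 Readout pairs a europium cryptate-labelled anti-phosphotyrosine antibody with XL665-streptavidin, measured by time-resolved fluorescence. IC50 derived from percent inhibition against untreated controls.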
# human Yes1 enzyme = target: T3, human Yes1 enzyme (Homo sapiens, UniProt P07947); test: Yes1 enzyme inhibitory activity (time-resolved fluorometry, biotinylated peptide phosphorylation); conditions: read-out: YES_IC50
# T3 construct: made in house
# Procedure, shortened: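 Inhibition was expressed against a compound-free control to give IC50, using TR-FRET read-out (Eu-cryptate anti-pTyr antibody, streptavidin-XL665).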
# [1] = biotinylated peptide phosphorylation
# T1 sequence (P12931 whole entry): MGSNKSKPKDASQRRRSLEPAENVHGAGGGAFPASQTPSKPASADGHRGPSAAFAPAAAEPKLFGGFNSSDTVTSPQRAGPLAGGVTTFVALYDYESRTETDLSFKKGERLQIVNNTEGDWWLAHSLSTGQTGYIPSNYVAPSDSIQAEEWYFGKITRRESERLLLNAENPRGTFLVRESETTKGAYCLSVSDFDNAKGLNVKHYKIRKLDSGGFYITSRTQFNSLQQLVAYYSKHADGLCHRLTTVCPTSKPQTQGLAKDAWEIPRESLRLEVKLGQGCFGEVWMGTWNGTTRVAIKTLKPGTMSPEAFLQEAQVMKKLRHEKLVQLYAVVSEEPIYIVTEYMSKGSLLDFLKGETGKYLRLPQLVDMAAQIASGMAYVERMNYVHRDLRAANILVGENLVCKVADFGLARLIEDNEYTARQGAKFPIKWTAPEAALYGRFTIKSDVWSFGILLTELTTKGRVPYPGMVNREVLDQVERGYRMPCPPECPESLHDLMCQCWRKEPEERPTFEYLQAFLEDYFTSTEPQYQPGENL
# T3 sequence (P07947 whole entry): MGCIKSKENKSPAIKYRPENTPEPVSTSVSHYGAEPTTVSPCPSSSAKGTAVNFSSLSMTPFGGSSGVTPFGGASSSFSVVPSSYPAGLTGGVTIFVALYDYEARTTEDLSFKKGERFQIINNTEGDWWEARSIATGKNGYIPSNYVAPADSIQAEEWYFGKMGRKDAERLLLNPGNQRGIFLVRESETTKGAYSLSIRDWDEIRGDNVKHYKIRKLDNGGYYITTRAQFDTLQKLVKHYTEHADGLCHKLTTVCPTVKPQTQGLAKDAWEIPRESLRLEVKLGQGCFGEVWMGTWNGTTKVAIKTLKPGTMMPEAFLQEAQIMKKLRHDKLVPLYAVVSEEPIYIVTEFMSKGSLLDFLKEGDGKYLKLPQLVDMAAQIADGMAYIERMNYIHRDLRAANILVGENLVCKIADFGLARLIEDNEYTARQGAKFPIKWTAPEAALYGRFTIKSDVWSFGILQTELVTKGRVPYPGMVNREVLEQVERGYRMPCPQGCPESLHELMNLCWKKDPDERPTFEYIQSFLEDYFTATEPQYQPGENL
# T2 sequence (P06239 whole entry): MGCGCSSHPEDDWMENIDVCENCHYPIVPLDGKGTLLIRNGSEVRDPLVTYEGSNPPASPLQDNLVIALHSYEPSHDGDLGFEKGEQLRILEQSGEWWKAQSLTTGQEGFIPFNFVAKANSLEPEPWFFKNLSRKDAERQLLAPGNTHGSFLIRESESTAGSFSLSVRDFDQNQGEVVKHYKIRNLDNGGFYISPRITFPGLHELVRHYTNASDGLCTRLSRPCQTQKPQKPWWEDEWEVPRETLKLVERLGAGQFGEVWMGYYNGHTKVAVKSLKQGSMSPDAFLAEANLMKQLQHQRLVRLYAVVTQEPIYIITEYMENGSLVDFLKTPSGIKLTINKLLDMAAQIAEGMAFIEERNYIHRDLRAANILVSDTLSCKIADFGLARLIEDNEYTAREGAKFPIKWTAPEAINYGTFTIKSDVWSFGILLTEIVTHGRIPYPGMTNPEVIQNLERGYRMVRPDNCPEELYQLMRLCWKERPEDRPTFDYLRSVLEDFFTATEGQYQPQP
Compound,IC50 (human Src enzyme) [nM],IC50 (human Lck enzyme) [nM],IC50 (human Yes1 enzyme) [nM],IC50 (human Src enzyme; [1]) [nM],IC50 (human Lck enzyme; [1]) [nM],IC50 (human Yes1 enzyme; [1]) [nM]
"Cc1cc(-n2ncc(C(=O)c3cc4cc(OC5CCN(C6CCCC6)CC5)c(-c5ccccc5Cl)cc4[nH]3)c2N)ccc1Oc1ccccc1F [Example 5-1-285, [5-amino-1-[4-(2-fluorophenoxy)-3-methylphenyl]pyrazol-4-yl]-[6-(2-chlorophenyl)-5-(1-cyclopentylpiperidin-4-yl)oxy-1H-indol-2-yl]methanone]",2300,500,5.2,,,
"Cc1cc2cc(C(=O)c3cnn(-c4ccc(Oc5ccccc5F)c(C)c4F)c3N)[nH]c2cc1NS(C)(=O)=O [Example 5-1-207, N-[2-[5-ainino-1-[2-fluoro-4-(2-fluorophenoxy)-3-methylphenyl]pyrazole-4-carbonyl]-5-methyl-1H-indol-6-yl]methanesulfonamide]",350,82,1.9,,,
"COc1cc2[nH]c(C(=O)c3cnn(-c4cnc(Oc5ccccc5F)cc4C)c3N)cc2cc1NS(C)(=O)=O [Example 4-1-014, N-[2-[5-amino-1-[6-(2-fluorophenoxy)-4-methylpyridin-3-yl]pyrazole-4-carbonyl]-6-methoxy-1H-indol-5-yl]methanesulfonamide]",,,,5.8,1.4,0.36
"Cc1cc(-n2ncc(C(=O)c3cc4cc(OC5CCN(C(C)C)CC5)c(F)cc4[nH]3)c2N)ccc1Oc1ccccc1F [Example 5-1-195, [5-amino-1-[4-(2-fluorophenoxy)-3-methylphenyl]pyrazol-4-yl]-[6-fluoro-5-(1-propan-2-ylpiperidin-4-yl)oxy-1H-indol-2-yl] methanone]",190,45,1.3,,,
"Cc1cc(Oc2ccccc2F)ccc1-n1ncc(C(=O)c2cc3cc(F)c(N4CCOCC4)cc3[nH]2)c1N [Example 5-1-119, [5-amino-1-[4-(2-fluorophenoxy)-2-methylphenyl]pyrazol-4-yl]-(5-fluoro-6-morpholin-4-yl-1H-indol-2-yl)methanone]",15,4.8,1.8,,,
"CC(C)N1CCC(c2cc3[nH]c(C(=O)c4cnn(-c5ccc(Oc6ccccc6F)cc5)c4N)cc3cc2F)CC1 [Example 5-1-007, [5-amino-1-[4-(2-fluorophenoxy)phenyl]pyrazol-4-yl]-[5-fluoro-6-(1-propan-2-ylpiperidin-4-yl)-1H-indol-2-yl]methanone]",11,2.2,1.1,,,
"Cc1cc2cc(C(=O)c3cnn(-c4cnc(Oc5c(F)cccc5F)cc4C)c3N)[nH]c2cc1N1C(=O)NC2(COC2)C1=O [Example 5-1-404, 7-[2-[5-amino-1-[6-(2,6-difluorophenoxy)-4-methylpyridin-3-yl]pyrazole-4-carbonyl]-5-methyl-1H-indol-6-yl]-2-oxa-5,7-diazaspiro[3.4] octane-6,8-dione]",,,,48,2.6,1.7
"CC(=O)N1CCC(c2cc3[nH]c(C(=O)c4cnn(-c5c(C)cc(Oc6ccccc6F)cc5F)c4N)cc3cc2OCC(F)F)CC1 [Example 4-17-017, 1-[4-[2-[5-amino-1-[2-fluoro-4-(2-fluorophenoxy)-6-methylphenyl]pyrazole-4-carbonyl]-5-(2,2-difluoroethoxy)-1H-indol-6-yl]piperidin-1-yl]ethanone]",,,,17,5.8,2.1
"Cc1cc(Oc2ccccc2F)ccc1-n1ncc(C(=O)c2cc3cc(N4CCOCC4)c(NS(C)(=O)=O)cc3[nH]2)c1N [Example 4-24-013, N-[2-[5-amino-1-[4-(2-fluorophenoxy)-2-methylphenyl]pyrazole-4-carbonyl]-5-morpholin-4-yl-1H-indol-6-yl]methanesulfonamide]",,,,40,12,1.6
"Cc1cc(Oc2cccc(F)c2F)ncc1-n1ncc(C(=O)c2cc3cc(F)c(NS(=O)(=O)CCCF)cc3[nH]2)c1N [Example 4-2-022, N-[2-[5-amino-1-[6-(2,3-difluorophenoxy)-4-methylpyridin-3-yl]pyrazole-4-carbonyl]-5-fluoro-1H-indol-6-yl]-3-fluoropropane-1-sulfonamide]",,,,140,26,5.4
"Cc1cc(Oc2ccccc2F)ncc1-n1ncc(C(=O)c2cc3cc(NS(C)(=O)=O)c(F)cc3[nH]2)c1N [Example 4-2-104, N-[2-[5-amino-1-[6-(2-fluorophenoxy)-4-methylpyridin-3-yl]pyrazole-4-carbonyl]-6-fluoro-1H-indol-5-yl]methanesulfonamide]",,,,22,1.9,0.56
"Cc1cc2cc(C(=O)c3cnn(-c4cnc(Oc5c(F)cccc5F)cc4C)c3N)[nH]c2cc1N1C(=O)[C@@H]2CCCN2C1=O [Example 5-1-454, (7aS)-2-[2-[5-amino-1-[6-(2,6-difluorophenoxy)-4-methylpyridin-3-yl]pyrazole-4-carbonyl]-5-methyl-1H-indol-6-yl]-5,6,7,7a-tetrahydropyrrolo[1,2-c]imidazole-1,3-dione]",,,,40,5.1,1.7
"Cc1cc(Oc2ccccc2F)ncc1-n1ncc(C(=O)c2cc3cc(OCC(F)F)c(NS(=O)(=O)N4CCOCC4)cc3[nH]2)c1N [Example 4-22-006, N-[2-[5-amino-1-[6-(2-fluorophenoxy)-4-methylpyridin-3-yl]pyrazole-4-carbonyl]-5-(2,2-difluoroethoxy)-1H-indol-6-yl]morpholine-4-sulfonamide]",,,,130,51,1.9
"Cc1cc(-n2ncc(C(=O)c3cc4cc(OC5CCN(C6CCC6)CC5)c(N5C(=O)NC(C)(C)C5=O)cc4[nH]3)c2N)ccc1Oc1ccccc1F [Example 5-1-233, 3-(2-(5-amino-1-(4-(2-fluorophenoxy)-3-methylphenyl)-1H-pyrazole-4-carbonyl)-5-((1-cyclobutylpiperidin-4-yl)oxy)-1H-indol-6-yl)-5,5-dimethylimidazolidine-2,4-dione]",340,21,0.92,,,
"Cc1cc(Oc2c(F)cccc2F)ncc1-n1ncc(C(=O)c2cc3cc(OC4CCN(C5CS(=O)(=O)C5)CC4)c(-c4ccccc4F)cc3[nH]2)c1N [Example 5-1-311, [5-amino-1-[6-(2,6-difluorophenoxy)-4-methylpyridin-3-yl]pyrazol-4-yl]-[5-[1-(1,1-dioxothietan-3-yl)piperidin-4-yl]oxy-6-(2-fluorophenyl)-1H-indol-2-yl]methanone]",48,15,3.6,,,
"Cc1cc(-n2ncc(C(=O)c3cc4cc(OCC(F)F)c(C5CCOCC5)cc4[nH]3)c2N)ccc1Oc1ccccc1F [Example 5-1-258, [5-amino-1-[4-(2-fluorophenoxy)-3-methylphenyl]pyrazol-4-yl]-[5-(2,2-difluoroethoxy)-6-(oxan-4-yl)-1H-indol-2-yl] methanone]",2900,720,18,,,
"Cc1cc(Oc2cccc(Cl)c2)cc(F)c1-n1ncc(C(=O)c2cc3cc(F)c(NS(=O)(=O)C4CC4)cc3[nH]2)c1N [Example 4-7-012, N-[2-[5-amino-1-[4-(3-chlorophenoxy)-2-fluoro-6-methylphenyl]pyrazole-4-carbonyl]-5-fluoro-1H-indol-6-yl]cyclopropanesulfonamide]",,,,330,160,14
"Cc1cccc(S(=O)(=O)Nc2cc3[nH]c(C(=O)c4cnn(-c5cnc(Oc6c(F)cccc6F)cc5C)c4N)cc3cc2C)n1 [Example 5-1-531, N-[2-[5-amino-1-[6-(2,6-difluorophenoxy)-4-melhylpyridin-3-yl]pyrazole-4-carbonyl]-5-methyl-1H-indol-6-yl]-6-methylpyridine-2-sulfonamide]",,,,480,110,4.9
"Cc1cc(Oc2cccc(F)c2F)cc(F)c1-n1ncc(C(=O)c2cc3cc(F)c(NS(C)(=O)=O)cc3[nH]2)c1N [Example 4-7-005, N-[2-[5-amino-1-[4-(2,3-difluorophenoxy)-2-fluoro-6-methylphenyl]pyrazole-4-carbonyl]-5-fluoro-1H-indol-6-yl]methanesulfonamide]",,,,160,45,2.8
"Cc1cc(Oc2c(F)cccc2F)ncc1-n1ncc(C(=O)c2cc3cc(OCC(F)F)c(NS(=O)(=O)c4cccc(Cl)c4)cc3[nH]2)c1N [Example 5-1-383, N-[2-[5-amino-1-[6-(2,6-difluorophenoxy)-4-methylpyridin-3-yl]pyrazole-4-carbonyl]-5-(2,2-difluoroethoxy)-1H-indol-6-yl]-3-chlorobenzenesulfonamide]",630,270,9.2,,,
"Cc1cc(Oc2c(F)cccc2F)ncc1-n1ncc(C(=O)c2cc3cc(OCC(F)F)c(-c4cncnc4)cc3[nH]2)c1N [Example 5-1-262, [5-amino-1-[6-(2,6-difluorophenoxy)-4-methylpyridin-3-yl]pyrazol-4-yl]-[5-(2,2-difluoroethoxy)-6-pyrimidin-5-yl-1H-indol-2-yl]methanone]",6.4,12,2.3,,,
"Cc1cc2cc(C(=O)c3cnn(-c4cnc(Oc5c(F)cccc5F)cc4C)c3N)[nH]c2cc1NS(=O)(=O)c1cc(F)cc(F)c1 [Example 5-1-561, N-[2-[5-amino-1-[6-(2,6-difluorophenoxy)-4-methylpyridin-3-yl]pyrazole-4-carbonyl]-5-methyl-1H-indol-6-yl]-3,5-difiuorobenzenesulfonamide]",,,,940,270,17
